Our source for the IC50 and EC50 values is patent US10815235B2, “Polycyclic compounds and uses thereof” (priority 2017, dated 2020).

Experiment [1] concerns the target T1, Serotonin 5-HT7 receptor (Homo sapiens, UniProt P34969).
T1 construct: expressed in transfected cells; host or cells: CHO-K1
Kind of experiment: cAMP HTRF Assay for Gs Coupled Receptors, agonist and antagonist mode. Type of experiment: cell-based. Here is the method:
Antagonist and agonist activities were shown using a cAMP HTRF Assay for Gs Coupled Receptors. The assay was prepared as follows: CHO-K1 cells expressing recombinant human and Serotonin 5-HT7 receptors were grown, prior to analysis, in media without antibiotic. The cells were detached by gentle flushing with PBS-EDTA (5 mM EDTA), recovered by centrifugation, and resuspended in assay buffer (KRH: 5 mM KCl, 1.25 mM MgSO4, 124 mM NaCl, 25 mM HEPES, 13.3 mM Glucose, 1.25 mM KH2PO4, 1.45 mM CaCl2, 0.5 g/l BSA).
To determine agonist activity (96 well), 12 μL of cells were mixed with 12 μL of the test compound at increasing concentrations and then incubated 30 min at room temperature. After addition of the lysis buffer and 1 hour incubation, cAMP concentrations were estimated according to the manufacturer specification.
Antagonist activity was determined in 96 well plates: 12 μL of cells were mixed with 6 μL of the test compound at increasing concentrations and then incubated 10 min. Thereafter 6 μL of the reference agonist was added at a final concentration corresponding to the historical EC80. The plates were then incubated for 30 min at room temperature. After addition of the lysis buffer and 1 hour incubation, cAMP concentrations were estimated according to the manufacturer specification. IC50 values were used to determine whether a compound acted as an antagonist.

The target in experiment [2] is T2, Serotonin 5-HT2A receptor (Homo sapiens, UniProt P28223).
T2 construct: expressed in transfected cells; host or cells: CHO-K1
T2 sequence (P28223 whole entry): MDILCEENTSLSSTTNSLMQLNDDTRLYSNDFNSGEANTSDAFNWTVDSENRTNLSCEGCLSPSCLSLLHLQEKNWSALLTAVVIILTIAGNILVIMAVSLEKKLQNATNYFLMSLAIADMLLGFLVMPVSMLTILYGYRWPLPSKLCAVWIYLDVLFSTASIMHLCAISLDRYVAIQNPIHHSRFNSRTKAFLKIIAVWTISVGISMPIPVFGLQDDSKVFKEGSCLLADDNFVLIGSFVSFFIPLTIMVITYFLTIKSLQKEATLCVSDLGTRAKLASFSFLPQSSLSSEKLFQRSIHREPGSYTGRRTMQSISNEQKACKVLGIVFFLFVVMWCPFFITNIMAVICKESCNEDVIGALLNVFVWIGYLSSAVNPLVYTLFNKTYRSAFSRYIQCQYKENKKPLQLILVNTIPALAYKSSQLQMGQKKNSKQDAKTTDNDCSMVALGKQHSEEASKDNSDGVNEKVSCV
As to the kind of experiment: IPOne HTRF assay, agonist and antagonist mode. It counts as cell-based. The protocol: (§1) Antagonist and agonist activities were determined using an IPOne […] HTRF assay. The assay was prepared as follows: CHO-K1 cells expressing human recombinant Adrenergic α1A, Serotonin 5-HT2A, and 5-HT2B receptors grown to mid-log phase in culture media without antibiotics were detached with PBS-EDTA, centrifuged and resuspended in medium without antibiotics buffer. 20,000 cells were distributed in a 96 well plate and incubated overnight at 37° C. with 5% CO2.
(§2) To analyze agonist activity, the medium was removed and 20 μl of assay buffer plus 20 μl of test compound or reference agonist were added in each well. The plate was incubated for 60 min. at 37° C. with 5% CO2. EC50 values were used to determine whether a compound acted as an agonist.
(§3) To analyze antagonist activity, 20 μl of test compound or reference antagonist was added and the plate is incubated for 15 min. at 37° C. in a humidified atmosphere of 95% air with 5% CO2, then 20 μl of reference agonist at a final concentration corresponding to the historical EC80 is added. The plate is incubated for 60 min. at 37° C. with 5% CO2. IP1-D2 reagent and anti-IP1 cryptate reagents are then dispensed in the wells and IP1 concentrations are then measured following the manufacturer recommendations. IC50 values were used to determine whether a compound acted as an antagonist.

Experiment [3] addresses T3, Adrenergic α1A receptor (Homo sapiens, UniProt P35348).
T3 construct: expressed in transfected cells; host or cells: CHO-K1
T3 sequence (P35348 1-466): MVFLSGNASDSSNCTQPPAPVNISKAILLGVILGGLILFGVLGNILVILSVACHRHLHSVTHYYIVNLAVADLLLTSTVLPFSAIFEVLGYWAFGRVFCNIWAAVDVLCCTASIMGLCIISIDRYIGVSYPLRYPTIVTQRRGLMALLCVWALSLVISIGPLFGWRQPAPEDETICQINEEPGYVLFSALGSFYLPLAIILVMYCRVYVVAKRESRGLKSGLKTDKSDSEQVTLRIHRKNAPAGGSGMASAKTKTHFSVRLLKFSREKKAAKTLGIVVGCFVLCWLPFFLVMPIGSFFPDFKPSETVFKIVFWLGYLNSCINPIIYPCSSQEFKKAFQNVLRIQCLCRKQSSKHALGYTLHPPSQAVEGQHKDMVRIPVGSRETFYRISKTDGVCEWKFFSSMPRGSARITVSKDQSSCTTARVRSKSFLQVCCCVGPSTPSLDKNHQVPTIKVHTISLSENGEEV
As to the kind of experiment: IPOne HTRF assay, agonist and antagonist mode. It counts as cell-based. The protocol: as §1, §2, §3

Experiment [4] concerns the target Serotonin 5-HT1D receptor (Homo sapiens, UniProt P28221). Kind of experiment: GTPγS Scintillation Proximity Assay, agonist and antagonist mode. Type of experiment: biochemical. Here is the method:
Antagonist and agonist activities were determined using a GTPγS Scintillation Proximity Assay. The assay was prepared as follows: Membrane extracts were prepared from recombinant human Dopamine D2L, D3; Serotonin 5-HT1A, 5-HT1B, 5-HT1D and 5-HT1F receptors.
Samples were tested by proprietary biological assays by Ogeda S. A., Euroscreen FAST Business Unit, Rue Adrienne Bolland, 47 B-6041 Gosselies, Belgium. Each protein assay was prepared using the following conditions.
5-HT1D • Assay buffer: 20 mM HEPES pH 7.4; 200 mM NaCl, 10 μg/ml saponin, 3 mM MgCl2; • Membranes: recombinant 5-HT1D membrane extracts thawed on ice and diluted in assay buffer to give […] and kept on ice; • GDP: diluted in assay buffer to give a 30 μM working solution (3 μM final concentration); • Beads: PVT-WGA (Perkin Elmer, RPNQ001), diluted in assay buffer at 50 mg/ml (0.5 mg/10 μl); and • GTPγ^35S: (PerkinElmer NEG030X), diluted in assay buffer to give 0.1 nM.
Membranes were mixed with GDP (volume:volume 1:1) and incubated for at least 15 min on ice. In parallel, GTPγ[^35S] is mixed with the beads (volume:volume 1:1) just before starting the reaction.
To determine agonist activity, the following reagents were added in the wells of an Optiplate (Perkin Elmer): 50 μL of test or reference ligand, 10 μL of assay buffer, 20 μl of the membranes:GDP mix, and 20 μL of the GTPγ[^35S]:beads mix. EC50 values were used to determine whether a compound acted as an agonist.
To determine antagonist activity, the following reagents were added in the wells of an Optiplate (Perkin Elmer): 50 μL of test or reference ligand, 20 μL of the membranes:GDP mix, then the plate is incubated 15 minutes at room temperature. After incubation, 10 μL of reference agonist at historical EC80 (final concentration) was added, followed by 20 μL of the GTPγ[^35S]:beads mix.
The plates were covered with a top seal, mixed on an orbital shaker for 2 min, and then incubated for 1 hour at room temperature. Then the plates were centrifuged for 10 min at 2000 rpm, incubated at room temperature 1 hour and counted for 1 min/well with a PerkinElmer TopCount reader. IC50 values were used to determine whether a compound acted as an antagonist.
(In a scintillation proximity assay essentially only radioactivity close to the scintillant gives light.)

Where [5] appears, read: Antagonist Activity (IC50), 5-HT7, CHO-K1 cells, vs reference agonist at EC80.
The mark [6] stands for this setting: IC50 value for the Serotonin 5-HT7 receptor, antagonist mode, bound stated.
Setting [7] is: CHO-K1 cells, vs reference agonist at EC80, read-out: Antagonist Activity (IC50), 5-HT2A.
Setting [8] is: CHO-K1 cells, read-out: Agonist Activity (EC50), 5-HT2A.
Setting [9] is: agonist mode, bound stated, read-out: EC50 value for the Serotonin 5-HT2A receptor.
[10] abbreviates: antagonist mode, bound stated, read-out: IC50 value for the Serotonin 5-HT2A receptor.
Setting [11] is: Antagonist Activity (IC50), α1A, CHO-K1 cells, vs reference agonist at EC80.
The mark [12] stands for this setting: IC50 value for the Adrenergic α1A receptor, antagonist mode, bound stated.
[13] abbreviates: Antagonist Activity (IC50), 5-HT1D, membrane extracts, vs reference agonist at EC80.
The mark [14] stands for this setting: IC50 value for the Serotonin 5-HT1D receptor, antagonist mode, bound stated.

Like-named read-outs stand apart in the source and are kept apart here. A value given as a limit tells only on which side of the number the result lay.

Sequence of Serotonin 5-HT1D receptor (P28221 whole entry): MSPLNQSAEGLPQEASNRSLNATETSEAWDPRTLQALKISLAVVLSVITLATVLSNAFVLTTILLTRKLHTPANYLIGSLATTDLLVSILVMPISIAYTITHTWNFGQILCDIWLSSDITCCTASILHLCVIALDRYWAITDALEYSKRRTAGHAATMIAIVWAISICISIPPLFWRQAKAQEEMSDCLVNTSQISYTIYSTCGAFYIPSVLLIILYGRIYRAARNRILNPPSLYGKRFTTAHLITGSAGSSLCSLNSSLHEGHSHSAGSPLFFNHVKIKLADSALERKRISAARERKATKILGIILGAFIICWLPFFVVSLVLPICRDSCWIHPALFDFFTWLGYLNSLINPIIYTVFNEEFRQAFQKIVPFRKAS
T1 sequence (P34969 whole entry): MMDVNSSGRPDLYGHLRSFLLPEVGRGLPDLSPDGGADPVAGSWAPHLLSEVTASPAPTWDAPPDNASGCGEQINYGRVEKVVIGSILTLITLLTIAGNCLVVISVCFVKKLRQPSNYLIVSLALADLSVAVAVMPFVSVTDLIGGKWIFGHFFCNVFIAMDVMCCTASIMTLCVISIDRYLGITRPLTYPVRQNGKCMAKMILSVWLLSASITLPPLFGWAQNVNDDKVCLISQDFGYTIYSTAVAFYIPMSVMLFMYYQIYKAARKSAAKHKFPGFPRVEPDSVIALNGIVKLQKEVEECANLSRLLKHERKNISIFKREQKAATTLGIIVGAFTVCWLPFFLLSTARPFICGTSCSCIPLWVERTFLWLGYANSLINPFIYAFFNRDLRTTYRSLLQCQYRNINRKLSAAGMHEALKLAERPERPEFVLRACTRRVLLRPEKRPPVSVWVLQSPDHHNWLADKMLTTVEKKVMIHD

One may read the IC50 as the concentration needed to halve the response being measured. As a reminder, the EC50 is the concentration at which the effect is half-maximal. With `CCN(CC)C(=O)N[C@H]1C[C@@H]2c3cccc4[nH]c(Br)c(c34)C[C@H]2N(C)C1` [Compound A8H, 3-((6aR,9S, 10aR)-5-bromo-7-methyl-4,6,6a,7,8,9,10,10a-octahydroindolo[4,3-fg]quinolin-9-yl)-1,1-diethylurea], the IC50 in experiment [1] (setting [5]) is 110 nM; in experiment [1] (setting [6]) it was under 1000 nM; in experiment [2] (setting [7]), 14 nM; in experiment [2] (setting [10]), under 1000 nM; in experiment [3] (setting [11]), 14 nM; in experiment [3] (setting [12]) it was under 1000 nM. Further, the results for the IC50 in experiment [4] (setting [13]) and in experiment [4] (setting [14]) were 8 nM and under 1000 nM, respectively. Besides, the values for the concentration giving a half-maximal response (EC50) in experiment [2] (setting [8]) and in experiment [2] (setting [9]) were 6.9 nM and under 1000 nM, respectively.
`CCN(CC)C(=O)N[C@H]1C[C@@H]2c3cccc4[nH]c(C(F)(F)F)c(c34)C[C@H]2N(C)C1` [Compound A9H, 1,1-diethyl-3-((6aR,9S,10aR)-7-methyl-5-(trifluoromethyl)-4,6,6a,7,8,9,10,10a-octahydroindolo[4,3-fg]quinolin-9-yl)urea]: the IC50 is 190 nM in experiment [1] (setting [5]); under 1000 nM in experiment [1] (setting [6]); 110 nM in experiment [2] (setting [7]); under 1000 nM in experiment [2] (setting [10]); 9.1 nM in experiment [3] (setting [11]); under 1000 nM in experiment [3] (setting [12]). Besides, the half-maximal inhibitory concentration (IC50) is 10 nM in experiment [4] (setting [13]) and under 1000 nM in experiment [4] (setting [14]). Also, the EC50 is 12 nM in experiment [2] (setting [8]) and under 1000 nM in experiment [2] (setting [9]).
For the molecule `CCN(CC(F)(F)F)C(=O)N[C@H]1C[C@@H]2c3cccc4[nH]c(C(F)(F)F)c(c34)C[C@H]2N(C)C1` [Compound A16H, 1-ethyl-3-((6aR,9S,10aR)-7-methyl-5-(trifluoromethyl)-4,6,6a,7,8,9,10,10a-octahydroindolo[4,3-fg]quinolin-9-yl)-1-(2,2,2-trifluoroethyl)urea], the IC50 in experiment [1] (CHO-K1 cells, vs reference agonist at EC80, read-out: Antagonist Activity (IC50), 5-HT7) is 380 nM; in experiment [1] (setting [6]) it was under 1000 nM; in experiment [2] (Antagonist Activity (IC50), 5-HT2A, CHO-K1 cells, vs reference agonist at EC80), 16 nM; in experiment [2] (IC50 value for the Serotonin 5-HT2A receptor, antagonist mode, bound stated) it was under 1000 nM; in experiment [3] (CHO-K1 cells, vs reference agonist at EC80, read-out: Antagonist Activity (IC50), α1A), 15 nM; in experiment [3] (setting [12]), under 1000 nM. For the same molecule, the IC50 in experiment [4] (setting [14]) is under 1000 nM; in experiment [4] (membrane extracts, vs reference agonist at EC80, read-out: Antagonist Activity (IC50), 5-HT1D) it was 14 nM.
`CCN(CC(F)(F)F)C(=O)N[C@H]1C[C@@H]2c3cccc4[nH]c(C5CC5)c(c34)C[C@H]2N(C)C1` [Compound A17H, 3-((6aR,9S,10aR)-5-cyclopropyl-7-methyl-4,6,6a,7,8,9,10,10a-octahydroindolo[4,3-fg]quinolin-9-yl)-1-ethyl-1-(2,2,2-trifluoroethyl)urea]: the IC50 in experiment [1] (setting [5]) was 140 nM; in experiment [1] (setting [6]), under 1000 nM; in experiment [2] (setting [7]), 11 nM; in experiment [2] (setting [10]) it was under 1000 nM; in experiment [3] (setting [11]) it was 13 nM; in experiment [3] (setting [12]), under 1000 nM. The IC50 was 50 nM in experiment [4] (setting [13]) and under 1000 nM in experiment [4] (setting [14]).
As to `CC[C@@H](CO)NC(=O)[C@@H]1C[C@@H]2c3cccc4c3c(c(C3CC3)n4C)C[C@H]2N(C)C1` [Compound D13H, (6aR,9R,10aR)-5-cyclopropyl-N—((S)-1-hydroxybutan-2-yl)-4,7-dimethyl-4,6,6a,7,8,9,10,10a-octahydroindolo[4,3-fg]quinoline-9-carboxamide], the EC50 is 40 nM in experiment [1]; 11 nM in experiment [4] (Agonist Activity (EC50), 5-HT1D, membrane extracts); under 1000 nM in experiment [4] (EC50 value for the Serotonin 5-HT1D receptor, agonist mode, bound stated). For the same molecule, the IC50 is 780 nM in experiment [1] (setting [5]), under 1000 nM in experiment [1] (setting [6]), 74 nM in experiment [2] (setting [7]) and under 1000 nM in experiment [2] (setting [10]).
